# Reference: patent US20240131028A1, “CHEMOVACCINATION AGAINST PLASMODIUM INFECTION WITH SELECTIVE PLASMEPSIN X INHIBITORS” (Merck Sharp & Dohme LLC, priority 2021, published 2024)
# System: ring stage parasites (Pf)
# Assay: Parasite lactate dehydrogenase (LDH) growth assay (Parasite Assay, PfLDH Assay)
# Format: cell-based, P. falciparum
# Details: Table 3; 72 hours growth, LDH readout; read-out: EC50
# Experimental: The parasite stock was maintained at 4% haematocrit in RPMI-Hepes media buffered with sodium bicarbonate and supplemented with 5% heat inactivated human serum and 0.5% albumax. […] On the day of assay set up, a blood smear of the parasite culture was Giemsa stained and counted. The parasitemia was adjusted to 0.7% rings and the haematocrit was diluted to 2% in RPMI-Hepes media buffered with sodium bicarbonate and supplemented with 5% heat inactivated human serum and 0.5% albumax. 30 μl of diluted parasites are then added into 10 μl of media+compound in pre-prepared Greiner TC assay plates. Parasite assay plates were placed in gassed humidified boxes in single layer and allowed to incubate at 37° C. for 72 hours. After 72 hours growth, assay plates were sealed with parafilm and frozen flat, in single file at −80° C. overnight. On the following day, assay plates were allowed to thaw at room temperature for 4 hours to which an LDH assay was performed to measure parasite growth.
row,Compound,EC50
1,"CC(C)C1(C)CC(NC(=O)[C@H]2C[C@@H]2CN2C(=N)NC(C)(C)CC2=O)c2ccccc2O1 (single isomer, unassigned) [Example 79C]",289 nM
2,"COCC[C@H]([C@H]1C[C@@H]1C(=O)NC1CC(C)(C(C)C)Oc2ccccc21)N1C(=N)NC(C)(C)CC1=O (single isomer, unassigned) [Example 80A]",9.4 nM
3,"COCC[C@H]([C@H]1C[C@@H]1C(=O)NC1CC(C)(C(C)C)Oc2ccccc21)N1C(=N)NC(C)(C)CC1=O (single isomer, unassigned) [Example 80B]",6.6 nM
4,"COCC[C@H]([C@H]1C[C@@H]1C(=O)NC1CC(C)(C(C)C)Oc2ccccc21)N1C(=N)NC(C)(C)CC1=O (single isomer, unassigned) [Example 80C]",14 nM
5,"COCC[C@H]([C@H]1C[C@@H]1C(=O)NC1CC(C)(C(C)C)Oc2ccccc21)N1C(=N)NC(C)(C)CC1=O (single isomer, unassigned) [Example 80D]",21 nM
6,"CC(C)C1(C)CC(NC(=O)[C@H]2C[C@@H]2[C@@H](c2cccnc2)N2C(=N)NC(C)(C)CC2=O)c2ccccc2O1 (single isomer, unassigned) [Example 81A]",2.7 nM
7,"CC(C)C1(C)CC(NC(=O)[C@H]2C[C@@H]2[C@@H](c2cccnc2)N2C(=N)NC(C)(C)CC2=O)c2ccccc2O1 (single isomer, unassigned) [Example 81B]",1 nM
8,"CC(C)C1(C)CC(NC(=O)[C@H]2C[C@@H]2[C@@H](c2cccnc2)N2C(=N)NC(C)(C)CC2=O)c2ccccc2O1 (single isomer, unassigned) [Example 81C]",0.9 nM
9,"CC(C)C1(C)CC(NC(=O)[C@H]2C[C@@H]2[C@@H](c2cccnc2)N2C(=N)NC(C)(C)CC2=O)c2ccccc2O1 (single isomer, unassigned) [Example 81D]",1.3 nM
10,"COCC[C@H]([C@H]1C[C@@H]1C(=O)NC1CC(C)(COC)Oc2ccccc21)N1C(=N)NC(C)(C)CC1=O (single isomer, unassigned) [Example 82A]",24.4 nM
11,"COCC[C@H]([C@H]1C[C@@H]1C(=O)NC1CC(C)(COC)Oc2ccccc21)N1C(=N)NC(C)(C)CC1=O (single isomer, unassigned) [Example 82B]",57 nM
12,"COCC[C@H]([C@H]1C[C@@H]1C(=O)NC1CC(C)(COC)Oc2ccccc21)N1C(=N)NC(C)(C)CC1=O (single isomer, unassigned) [Example 82C]",53 nM
13,"COCC[C@H]([C@H]1C[C@@H]1C(=O)NC1CC(C)(COC)Oc2ccccc21)N1C(=N)NC(C)(C)CC1=O (single isomer, unassigned) [Example 82D]",27 nM
14,"CC1(C)CC(=O)N([C@H](c2cccnc2)[C@H]2C[C@@H]2C(=O)NC2CC(C)(C)Oc3ccc(F)cc32)C(=N)N1 (single isomer, unassigned) [Example 98A]",0.9 nM
15,"CC1(C)CC(=O)N([C@H](c2cccnc2)[C@H]2C[C@@H]2C(=O)NC2CC(C)(C)Oc3ccc(F)cc32)C(=N)N1 (single isomer, unassigned) [Example 98B]",2.2 nM
16,"CC[C@]1(C)CC(=O)N(C(c2cncc(F)c2)[C@H]2C[C@@H]2C(=O)N[C@@H]2c3ccccc3OC(C)(C)C2(C)O)C(=N)N1 (single isomer, unassigned) [Example 103A]",29 nM
17,"CC[C@]1(C)CC(=O)N(C(c2cncc(F)c2)[C@H]2C[C@@H]2C(=O)N[C@@H]2c3ccccc3OC(C)(C)C2(C)O)C(=N)N1 (single isomer, unassigned) [Example 103B]",2.1 nM
18,"CC[C@]1(C)CC(=O)N(C(c2cncc(F)c2)[C@H]2C[C@@H]2C(=O)NC2c3ccccc3OC(C(F)(F)F)C2O)C(=N)N1 (single isomer, unassigned) [Example 104A]",4 nM
19,"CC[C@]1(C)CC(=O)N(C(c2cncc(F)c2)[C@H]2C[C@@H]2C(=O)NC2c3ccccc3OC(C(F)(F)F)C2O)C(=N)N1 (single isomer, unassigned) [Example 104B]",22 nM

row,Compound,EC50
1,"CCC1(C)CC(NC(=O)[C@H]2C[C@@H]2[C@@H](c2cccnc2)N2C(=N)NC(C)(C)CC2=O)c2ccccc2O1 (single isomer, unassigned) [Example 105A]",0.9 nM
2,"CCC1(C)CC(NC(=O)[C@H]2C[C@@H]2[C@@H](c2cccnc2)N2C(=N)NC(C)(C)CC2=O)c2ccccc2O1 (single isomer, unassigned) [Example 105B]",1.8 nM
3,"CCC1(C)CC(NC(=O)[C@H]2C[C@@H]2[C@@H](c2cccnc2)N2C(=N)NC(C)(C)CC2=O)c2ccccc2O1 (single isomer, unassigned) [Example 105C]",0.8 nM
4,"CCC1(C)CC(NC(=O)[C@H]2C[C@@H]2[C@@H](c2cccnc2)N2C(=N)NC(C)(C)CC2=O)c2ccccc2O1 (single isomer, unassigned) [Example 105D]",0.9 nM
5,"COCC1(C)CC(NC(=O)[C@H]2C[C@@H]2[C@@H](c2cccnc2)N2C(=N)NC(C)(C)CC2=O)c2ccccc2O1 (single isomer, unassigned) [Example 108A]",70 nM
6,"COCC1(C)CC(NC(=O)[C@H]2C[C@@H]2[C@@H](c2cccnc2)N2C(=N)NC(C)(C)CC2=O)c2ccccc2O1 (single isomer, unassigned) [Example 108B]",3.7 nM
7,"COCC1(C)CC(NC(=O)[C@H]2C[C@@H]2[C@@H](c2cccnc2)N2C(=N)NC(C)(C)CC2=O)c2ccccc2O1 (single isomer, unassigned) [Example 108C]",6 nM
8,"COCC1(C)CC(NC(=O)[C@H]2C[C@@H]2[C@@H](c2cccnc2)N2C(=N)NC(C)(C)CC2=O)c2ccccc2O1 (single isomer, unassigned) [Example 108D]",8.5 nM
9,"CC1(C)CC(=O)N([C@H](c2cccnc2)[C@H]2C[C@@H]2C(=O)NC2CC(C)(C)Oc3ccc(C(F)(F)F)cc32)C(=N)N1 (single isomer, unassigned) [Example 109A]",2.3 nM
10,"CC1(C)CC(=O)N([C@H](c2cccnc2)[C@H]2C[C@@H]2C(=O)NC2CC(C)(C)Oc3ccc(C(F)(F)F)cc32)C(=N)N1 (single isomer, unassigned) [Example 109B]",1 nM
11,"CC[C@]1(C)CC(=O)N([C@H](CCOC)[C@H]2C[C@@H]2C(=O)NC2CC(C)(C)Oc3ccc(C(F)(F)F)cc32)C(=N)N1 (single isomer, unassigned) [Example 127A]",1.1 nM
12,"CC[C@]1(C)CC(=O)N([C@H](CCOC)[C@H]2C[C@@H]2C(=O)NC2CC(C)(C)Oc3ccc(C(F)(F)F)cc32)C(=N)N1 (single isomer, unassigned) [Example 127B]",2.6 nM
13,"CC[C@]1(C)CC(=O)N([C@H](CCOC)[C@H]2C[C@@H]2C(=O)NC2CC(C)(C)Oc3ccc(F)cc32)C(=N)N1 (single isomer, unassigned) [Example 130A]",0.9 nM
14,"CC[C@]1(C)CC(=O)N([C@H](CCOC)[C@H]2C[C@@H]2C(=O)NC2CC(C)(C)Oc3ccc(F)cc32)C(=N)N1 (single isomer, unassigned) [Example 130B]",2.4 nM
15,"CCC1C[C@H](NC(=O)[C@H]2C[C@@H]2CN2C(=N)NC(C)(C)CC2=O)c2ccccc2O1 (single isomer, unassigned) [Example 133A]",210 nM
16,"CCC1C[C@H](NC(=O)[C@H]2C[C@@H]2CN2C(=N)NC(C)(C)CC2=O)c2ccccc2O1 (single isomer, unassigned) [Example 133B]",100 nM
17,"COCC[C@H]([C@H]1C[C@@H]1C(=O)NC1CC(C)(C)Oc2cc(OC(F)(F)F)ccc21)N1C(=N)NC(C)(C)CC1=O (single isomer, unassigned) [Example 134A]",71 nM
18,"COCC[C@H]([C@H]1C[C@@H]1C(=O)NC1CC(C)(C)Oc2cc(OC(F)(F)F)ccc21)N1C(=N)NC(C)(C)CC1=O (single isomer, unassigned) [Example 134B]",25 nM

# Same assay, conditions: Table 4; 72 hours growth, LDH readout; read-out: EC50 (Table 4)
row,Compound,EC50
1,"CCC1(CC)CC(=O)N(C(CC(C)OC)[C@H]2C[C@@H]2C(=O)N[C@H]2CC(C)(C)Oc3ccccc32)C(=N)N1 (single isomer, unassigned) [Example 142A]",1.9 nM
2,"CCC1(CC)CC(=O)N(C(CC(C)OC)[C@H]2C[C@@H]2C(=O)N[C@H]2CC(C)(C)Oc3ccccc32)C(=N)N1 (single isomer, unassigned) [Example 142B]",0.7 nM
3,"CCC1(CC)CC(=O)N(C(CC(C)OC)[C@H]2C[C@@H]2C(=O)N[C@H]2CC(C)(C)Oc3ccccc32)C(=N)N1 (single isomer, unassigned) [Example 142C]",205 nM
4,"CCC1(CC)CC(=O)N(C(CC(C)OC)[C@H]2C[C@@H]2C(=O)N[C@H]2CC(C)(C)Oc3ccccc32)C(=N)N1 (single isomer, unassigned) [Example 142D]",115 nM
5,"CCC1(CC)CC(=O)N(C(CC(C)OC)[C@H]2C[C@@H]2C(=O)N[C@@H]2CC(C)(C)Oc3ccccc32)C(=N)N1 (single isomer, unassigned) [Example 143A]",4.6 nM
6,"CCC1(CC)CC(=O)N(C(CC(C)OC)[C@H]2C[C@@H]2C(=O)N[C@@H]2CC(C)(C)Oc3ccccc32)C(=N)N1 (single isomer, unassigned) [Example 143B]",2.4 nM
7,"CCC1(CC)CC(=O)N(C(CC(C)OC)[C@H]2C[C@@H]2C(=O)N[C@@H]2CC(C)(C)Oc3ccccc32)C(=N)N1 (single isomer, unassigned) [Example 143C]",57.9 nM
